The record followed here is PubChem BioAssay (NCI).

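Exposure lasted 48 hours, with cells grown in 96-well plates and compounds tested at five concentrations. At the TGI there is no net growth.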

Test systems include HCC-2998 colon; BT-549 breast; NCI-H522 lung; HL-60(TB) leukemia; PC-3 prostate; OVCAR-4 ovarian; CCRF-CEM leukemia; SNB-19 CNS; A498 renal; M14 melanoma; DU-145 prostate; HT29 colon; SK-MEL-28 melanoma; KM12 colon; MDA-N; SR leukemia.
Test in all cases: NCI-60 cell line screen, 48 h

`Cc1[nH]c2ncn3nc(C(Cl)(Cl)Cl)nc3c2c1Cc1ccccc1`: the TGI in the test on HCC-2998 colon, with BT-549 breast, with NCI-H522 lung, in the test with HL-60(TB) leukemia, in the test on PC-3 prostate and in the test on OVCAR-4 ovarian was over 100 µM each time. In addition, the TGI in the test on CCRF-CEM leukemia, in the test with SNB-19 CNS, in the test on A498 renal, in the test with M14 melanoma, with DU-145 prostate and in the test on HT29 colon was over 100 µM each time. Moreover, the TGI in the test with SK-MEL-28 melanoma, with KM12 colon and in the test with MDA-N was over 100 µM each time.
`CCOC(=O)c1c(C)n(Cc2ccccc2)c(=O)c2ccccc2c(=O)c2c(=O)ccc(=O)c1=2`: the TGI was over 100 µM in the test with HCC-2998 colon; 62.8 µM with NCI-H522 lung; over 100 µM in the test with HL-60(TB) leukemia; over 100 µM in the test on SR leukemia; over 100 µM in the test on PC-3 prostate; over 100 µM with OVCAR-4 ovarian. The TGI with CCRF-CEM leukemia, in the test with SNB-19 CNS, in the test with A498 renal, in the test with M14 melanoma, in the test with DU-145 prostate and in the test on HT29 colon was over 100 µM throughout. Moreover, the TGI in the test with SK-MEL-28 melanoma, in the test on KM12 colon and with MDA-N was over 100 µM each time.
On to `S=c1[nH]nc(COc2ccc3c(c2)CCCC3)n1/N=C/c1ccc(Cl)cc1`, for which the TGI with BT-549 breast amounted to 31.3 µM; in the test with NCI-H522 lung it was 28.9 µM; in the test on HL-60(TB) leukemia it was 40.7 µM; in the test on PC-3 prostate, 31.2 µM; in the test with OVCAR-4 ovarian, 32.8 µM; in the test with CCRF-CEM leukemia it was 55.8 µM. The TGI with SNB-19 CNS was 40 µM; in the test with M14 melanoma it was 34.5 µM; in the test on DU-145 prostate, 33 µM; in the test with SK-MEL-28 melanoma it was 33.1 µM; in the test with KM12 colon, 31.7 µM; in the test with MDA-N, 33.5 µM.
On to `CCN1CC2=C(N=c3s/c(=C\c4ccc(Cl)cc4)c(=O)n3C2c2ccc(Cl)cc2)/C(=C/c2ccc(Cl)cc2)C1` (configuration not stated), for which the TGI with HCC-2998 colon is over 100 µM; in the test on BT-549 breast, 85.8 µM; with NCI-H522 lung, over 100 µM; in the test on HL-60(TB) leukemia it was over 100 µM; with PC-3 prostate it was over 100 µM; in the test with OVCAR-4 ovarian, over 100 µM. The TGI in the test on CCRF-CEM leukemia was over 100 µM; in the test with SNB-19 CNS it was over 100 µM; with A498 renal it was 64.6 µM; with M14 melanoma it was over 100 µM; in the test with DU-145 prostate, over 100 µM; in the test with HT29 colon it was over 100 µM. Moreover, the TGI with SK-MEL-28 melanoma, in the test on KM12 colon and in the test with MDA-N was over 100 µM in each case.
Consider `COc1c(CC=C(C)C)c(O)c(C(CC(C)C)c2c(O)c(C(C)=O)c(O)c3c2OC(C(C)(C)O)C3)c(O)c1C(C)=O` (configuration not stated), for which the TGI with HCC-2998 colon is over 12.5 µM; with BT-549 breast, 10.6 µM; in the test on NCI-H522 lung, over 12.5 µM; in the test on HL-60(TB) leukemia it was 6.57 µM; in the test with SR leukemia it was 10.4 µM; in the test with OVCAR-4 ovarian, over 12.5 µM. Further, the TGI with CCRF-CEM leukemia, in the test with SNB-19 CNS, with A498 renal, in the test on M14 melanoma, in the test with DU-145 prostate and with HT29 colon was over 12.5 µM throughout. Besides, the TGI in the test on SK-MEL-28 melanoma and with MDA-N was over 12.5 µM in each case.
On to `c1ccc2c(c1)ccc1nc(-c3ccc4c(c3)OCO4)c3c(c12)CCCC3`, for which the TGI is over 100 µM with HCC-2998 colon; over 100 µM with BT-549 breast; over 100 µM with PC-3 prostate; 64.8 µM in the test with OVCAR-4 ovarian; over 100 µM with CCRF-CEM leukemia; over 100 µM in the test on SNB-19 CNS. For the same compound, the TGI is 72.9 µM in the test with A498 renal; over 100 µM with M14 melanoma; over 100 µM with HT29 colon; over 100 µM with SK-MEL-28 melanoma; 24.2 µM with KM12 colon; over 100 µM with MDA-N.
As to `CN(C1=NCCO1)c1cccc2ccccc12`, the TGI in the test on HCC-2998 colon, with NCI-H522 lung, in the test on HL-60(TB) leukemia, with SR leukemia, in the test on PC-3 prostate and with OVCAR-4 ovarian was over 10 µM throughout. In addition, the TGI in the test with CCRF-CEM leukemia, in the test with SNB-19 CNS, in the test on A498 renal, in the test on M14 melanoma, in the test on DU-145 prostate and in the test on HT29 colon was over 10 µM in each case. Also, the TGI in the test with SK-MEL-28 melanoma, with KM12 colon and in the test with MDA-N was over 10 µM throughout.
Turning to `CC(C)=CCC[C@]1(C)CC[C@]2(C)C3CCC(=C(C)C)[C@@H](CCCO)[C@]3(C)CC[C@@]2(C)C1` (some centres not stated), the TGI in the test on HCC-2998 colon is over 100 µM; in the test with BT-549 breast, over 100 µM; in the test with NCI-H522 lung it was 37.2 µM; in the test with HL-60(TB) leukemia, 84.3 µM; in the test with PC-3 prostate, over 100 µM; in the test on OVCAR-4 ovarian, over 100 µM. In addition, the TGI with CCRF-CEM leukemia, in the test on SNB-19 CNS, in the test with A498 renal, with M14 melanoma, in the test on DU-145 prostate and in the test on HT29 colon was over 100 µM in each case. Further, the TGI in the test with SK-MEL-28 melanoma, with KM12 colon and in the test on MDA-N was over 100 µM throughout.
For `Cc1ccc(-c2c(C#N)c(-c3ccc(Cl)cc3)c(C#N)c(=O)n2NS(=O)(=O)c2ccccc2)cc1`, the TGI in the test on HCC-2998 colon, in the test with BT-549 breast, in the test on NCI-H522 lung, with HL-60(TB) leukemia, with PC-3 prostate and in the test with OVCAR-4 ovarian was over 100 µM each time. The TGI in the test on CCRF-CEM leukemia, in the test on SNB-19 CNS, in the test on A498 renal, in the test with M14 melanoma, in the test with HT29 colon and with SK-MEL-28 melanoma was over 100 µM each time. For the same compound, the TGI with KM12 colon and in the test on MDA-N was over 100 µM throughout.
